This note sets out measurements from patent US9382254B2, “Compounds and pharmaceutical compositions thereof for the treatment of cystic fibrosis” (Galapagos NV, priority 2013, dated 2016).

Format in all cases: cell-based
The target in assay [1] is T1, CFTR ΔF508 mutant (Homo sapiens, UniProt P13569, DEL508-508).
T1 construct: expressed in transfected cells; host or cells: CFBE41o- (adenoviral transduction)
The experiment in a line: YFP-halide influx assay for the CFTR-ΔF508 mutation, PBS buffer (96 well). To be noted: CFBE41o- cells, forskolin 10.67 μM. The gist of the method:
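CFBE41o- cells were adenovirally transduced with CFTR ΔF508 and YFP H148Q/I152L, then incubated 24 h at 27 °C or with a CFTR modulator at 37 °C. I⁻-induced fluorescence quenching was recorded over 7 s after injection; response expressed as 1−F/F0, with EC50 from concentration plots.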

The target of assay [2] is T1, CFTR ΔF508 mutant. Nature of the assay: YFP-halide influx assay for the CFTR-ΔF508 mutation (384 well, FDSS/μCell). To be noted: CFBE41o- cells, CFTR-ΔF508, 1×D-PBS, fluorescence after 36 seconds. The method, boiled down:
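Potentiator read-out as 1−F/F0, F taken 36 s after iodide addition, EC50 fitted against compound concentration. Cells: CFBE41o- expressing ΔF508 CFTR plus halide-sensitive YFP via adenovirus, rescued by 27 °C for 24 h or 24 h modulator at 37 °C.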

Assay [3] addresses T2, CFTR G551D mutant (Homo sapiens, UniProt P13569, G551D).
T2 construct: expressed in transfected cells; host or cells: HEK293 (reverse transfection with plasmid)
The experiment in a line: YFP-halide influx assay for the CFTR-G551D mutation. To be noted: HEK293 cells, forskolin 10.67 μM. The gist of the method: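 Channel opening potentiation measured as 1−F/F0, where F is YFP fluorescence 7 s after iodide injection and F0 before; EC50 taken from concentration plot. Cells: HEK293 transiently expressing CFTR G551D plus halide-sensitive YFP (H148Q, I152L, F47L), 24 h at 37 °C, 5% CO2.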

Assay [4] has as its target T1, CFTR ΔF508 mutant. The experiment in a line: YFP-halide influx assay for the CFTR-ΔF508 mutation, gluconate buffer. Conditions: CFBE41o- cells, forskolin 10.67 μM. The gist of the method:
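Channel opening is read as the fall in YFP fluorescence over 7 s following iodide injection, expressed as 1-F/F0 and plotted versus compound concentration to derive EC50. Cells used were CFBE41o- expressing adenoviral ΔF508 CFTR and halide-sensitive YFP, rescued by 24 h at 27 °C or 24 h modulator treatment at 37 °C.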

Molecules are shown by their SMILES.

What is called EC50 is the concentration at which the effect is half-maximal. Read a low EC50 as a more potent agent.

T2 sequence (P13569 whole entry G551D): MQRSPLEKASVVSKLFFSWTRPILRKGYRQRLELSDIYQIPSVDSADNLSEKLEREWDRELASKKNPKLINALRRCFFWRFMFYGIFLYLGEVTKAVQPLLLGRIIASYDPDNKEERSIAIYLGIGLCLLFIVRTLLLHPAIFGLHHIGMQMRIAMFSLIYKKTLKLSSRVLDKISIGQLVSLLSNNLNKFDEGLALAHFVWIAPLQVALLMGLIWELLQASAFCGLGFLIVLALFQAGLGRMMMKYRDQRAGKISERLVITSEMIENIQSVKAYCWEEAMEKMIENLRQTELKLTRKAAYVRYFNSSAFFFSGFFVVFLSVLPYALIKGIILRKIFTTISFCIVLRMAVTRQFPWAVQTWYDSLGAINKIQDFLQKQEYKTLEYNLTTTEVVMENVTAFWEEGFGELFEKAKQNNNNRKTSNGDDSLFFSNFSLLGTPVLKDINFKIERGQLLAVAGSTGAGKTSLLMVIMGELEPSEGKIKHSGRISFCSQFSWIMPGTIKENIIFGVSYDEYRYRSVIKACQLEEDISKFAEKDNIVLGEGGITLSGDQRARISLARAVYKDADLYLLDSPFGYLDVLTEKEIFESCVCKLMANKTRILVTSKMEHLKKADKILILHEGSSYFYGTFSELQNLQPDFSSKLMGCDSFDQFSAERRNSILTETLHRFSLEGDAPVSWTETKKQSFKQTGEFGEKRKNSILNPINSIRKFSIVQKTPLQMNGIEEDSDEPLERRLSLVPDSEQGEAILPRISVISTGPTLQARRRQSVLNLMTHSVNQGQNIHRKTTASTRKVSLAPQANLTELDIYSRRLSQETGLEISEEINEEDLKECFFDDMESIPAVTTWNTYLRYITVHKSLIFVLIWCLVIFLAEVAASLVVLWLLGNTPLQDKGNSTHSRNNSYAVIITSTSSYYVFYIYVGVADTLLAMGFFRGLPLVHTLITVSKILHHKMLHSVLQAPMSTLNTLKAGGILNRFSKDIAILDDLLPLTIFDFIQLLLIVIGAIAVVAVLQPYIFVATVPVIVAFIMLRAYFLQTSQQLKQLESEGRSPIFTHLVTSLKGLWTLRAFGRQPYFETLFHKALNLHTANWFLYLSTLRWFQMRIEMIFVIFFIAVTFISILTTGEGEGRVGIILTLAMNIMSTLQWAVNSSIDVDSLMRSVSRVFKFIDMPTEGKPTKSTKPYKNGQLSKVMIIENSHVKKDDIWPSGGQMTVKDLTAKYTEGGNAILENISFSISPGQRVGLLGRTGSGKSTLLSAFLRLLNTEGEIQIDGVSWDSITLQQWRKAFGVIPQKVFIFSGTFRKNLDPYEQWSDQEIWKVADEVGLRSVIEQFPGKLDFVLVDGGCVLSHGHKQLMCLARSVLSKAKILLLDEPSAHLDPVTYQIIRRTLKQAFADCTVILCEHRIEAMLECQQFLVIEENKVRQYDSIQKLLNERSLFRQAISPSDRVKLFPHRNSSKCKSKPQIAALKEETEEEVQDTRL
T1 sequence (P13569 with tags, fused parts or gaps DEL508-508): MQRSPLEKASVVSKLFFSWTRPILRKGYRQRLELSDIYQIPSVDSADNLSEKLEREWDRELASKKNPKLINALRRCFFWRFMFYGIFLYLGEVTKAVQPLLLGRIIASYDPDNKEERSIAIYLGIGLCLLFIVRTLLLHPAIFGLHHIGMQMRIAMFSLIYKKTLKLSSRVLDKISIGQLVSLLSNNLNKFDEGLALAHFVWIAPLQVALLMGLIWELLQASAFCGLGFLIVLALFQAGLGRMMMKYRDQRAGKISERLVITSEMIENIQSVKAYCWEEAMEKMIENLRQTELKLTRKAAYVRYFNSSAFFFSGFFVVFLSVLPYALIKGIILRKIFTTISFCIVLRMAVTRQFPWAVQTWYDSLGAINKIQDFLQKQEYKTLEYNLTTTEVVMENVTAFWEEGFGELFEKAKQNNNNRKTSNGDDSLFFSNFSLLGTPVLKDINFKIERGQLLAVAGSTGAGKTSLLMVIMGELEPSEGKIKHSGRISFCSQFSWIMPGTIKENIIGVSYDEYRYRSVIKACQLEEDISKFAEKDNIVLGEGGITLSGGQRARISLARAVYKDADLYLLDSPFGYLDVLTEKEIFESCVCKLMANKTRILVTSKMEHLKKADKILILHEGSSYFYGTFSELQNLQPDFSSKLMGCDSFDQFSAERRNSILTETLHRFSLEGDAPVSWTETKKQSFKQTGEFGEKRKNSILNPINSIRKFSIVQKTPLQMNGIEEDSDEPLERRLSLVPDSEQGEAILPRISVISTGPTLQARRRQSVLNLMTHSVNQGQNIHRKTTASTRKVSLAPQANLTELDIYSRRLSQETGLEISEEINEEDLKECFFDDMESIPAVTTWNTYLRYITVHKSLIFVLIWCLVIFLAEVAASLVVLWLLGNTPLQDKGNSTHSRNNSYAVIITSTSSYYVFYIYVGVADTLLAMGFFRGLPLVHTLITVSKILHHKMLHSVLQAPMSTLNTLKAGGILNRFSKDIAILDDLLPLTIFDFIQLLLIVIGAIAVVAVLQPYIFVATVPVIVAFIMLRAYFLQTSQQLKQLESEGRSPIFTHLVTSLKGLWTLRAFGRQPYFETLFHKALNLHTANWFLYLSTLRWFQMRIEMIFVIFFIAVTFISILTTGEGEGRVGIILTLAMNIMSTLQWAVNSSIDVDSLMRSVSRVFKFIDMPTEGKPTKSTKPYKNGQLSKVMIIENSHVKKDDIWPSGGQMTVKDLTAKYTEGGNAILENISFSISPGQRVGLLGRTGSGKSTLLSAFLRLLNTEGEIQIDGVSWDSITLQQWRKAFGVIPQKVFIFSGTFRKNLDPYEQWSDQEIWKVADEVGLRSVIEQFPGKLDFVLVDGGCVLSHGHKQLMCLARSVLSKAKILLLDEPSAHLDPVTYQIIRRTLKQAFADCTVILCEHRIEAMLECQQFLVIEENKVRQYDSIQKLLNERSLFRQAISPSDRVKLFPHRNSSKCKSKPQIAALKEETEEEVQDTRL

As to `NC(=O)c1cc(S(=O)(=O)N2CC=C(C(F)(F)F)CC2)sc1NC(=O)c1ccccc1F` [Compound 158, 2-(2-fluorobenzamido)-5-(4-(trifluoromethyl)-5,6-dihydropyridin-1(2H)-ylsulfonyl)thiophene-3-carboxamide], the EC50 is 0.0355 µM in assay [1], 0.0795 µM in assay [2], 1.87 µM in assay [3] and 0.0505 µM in assay [4].
Taken in the same sequence, the figures for `COc1ccc(CN(C)S(=O)(=O)c2cc(C(N)=O)c(NC(=O)c3cc[nH]n3)s2)cc1F` [Compound 160, N-(3-carbamoyl-5-(N-(3-fluoro-4-methoxybenzyl)-N-methylsulfamoyl)thiophen-2-yl)-1H-pyrazole-3-carboxamide] were 0.0387 µM, 0.21 µM, 0.272 µM and 0.0484 µM.
Taken in the same sequence, the figures for `COc1ccc(CN(C)S(=O)(=O)c2cc(C(N)=O)c(NC(=O)c3cc[nH]n3)s2)cc1` [Compound 171, N-(3-carbamoyl-5-(N-(4-methoxybenzyl)-N-methylsulfamoyl)thiophen-2-yl)-1H-pyrazole-3-carboxamide] were 0.0375 µM, 0.0814 µM, 0.756 µM and 0.104 µM.
The like results for `CN(Cc1ccc(C(F)(F)F)cc1)S(=O)(=O)c1cc(C(N)=O)c(NC(=O)c2cc[nH]n2)s1` [Compound 175, N-(3-carbamoyl-5-(N-methyl-N-(4-(trifluoromethyl)benzyl)sulfamoyl)thiophen-2-yl)-1H-pyrazole-3-carboxamide] were, in that order, 0.0617 µM, 0.0968 µM, 0.527 µM and 0.106 µM.
Consider `CC(C)c1ccccc1S(=O)(=O)c1cc(C(N)=O)c(NC(=O)c2ccccc2F)s1` [Compound 179, 2-(2-fluorobenzamido)-5-(2-isopropylphenylsulfonyl) thiophene-3-carboxamide], for which the EC50 in assay [1] is 0.0312 µM; in assay [2] it was 0.0849 µM; in assay [3] it was 0.332 µM; in assay [4] it was 0.0222 µM.
The like results for `CC1(C)CN(S(=O)(=O)c2cc(C(N)=O)c(NC(=O)c3ccccc3F)s2)C1` [Compound 183, 5-(3,3-dimethylazetidin-1-ylsulfonyl)-2-(2-fluorobenzamido)thiophene-3-carboxamide] were, in that order, 0.0257 µM, 0.0127 µM, 0.526 µM and 0.153 µM.
Taken in the same sequence, the figures for `CN(CC(C)(C)C)S(=O)(=O)c1cc(C(N)=O)c(NC(=O)c2cc[nH]n2)s1` [Compound 192, N-(3-carbamoyl-5-(N-methyl-N-neopentylsulfamoyl)thiophen-2-yl)-1H-pyrazole-3-carboxamide] were 0.0334 µM, 0.0207 µM, 0.298 µM and 0.0606 µM.
The like results for `CN(CCC(F)(F)F)S(=O)(=O)c1cc(C(N)=O)c(NC(=O)c2cc[nH]n2)s1` [Compound 194, N-(3-carbamoyl-5-(N-methyl-N-(3,3,3-trifluoropropyl)sulfamoyl)thiophen-2-yl)-1H-pyrazole-3-carboxamide] were, in that order, 0.0383 µM, 0.0207 µM, 0.185 µM and 0.154 µM.
As to `CC1(C)CN(S(=O)(=O)c2cc(C(N)=O)c(NC(=O)c3cc[nH]n3)s2)C1` [Compound 206, N-(3-carbamoyl-5-(3,3-dimethylazetidin-1-ylsulfonyl)thiophen-2-yl)-1H-pyrazole-3-carboxamide], the EC50 in assay [1] stood at 0.0314 µM; in assay [2] it was 0.0069 µM; in assay [3], 0.134 µM; in assay [4], 0.0726 µM.
The like results for `CN(Cc1ccncc1)S(=O)(=O)c1cc(C(N)=O)c(NC(=O)c2cc[nH]n2)s1` [Compound 207, N-(3-carbamoyl-5-(N-methyl-N-(pyridin-4-ylmethyl)sulfamoyl)thiophen-2-yl)-1H-pyrazole-3-carboxamide] were, in that order, 0.125 µM, 0.0481 µM, 0.442 µM and 0.317 µM.
In the case of `CN(C1CC1)S(=O)(=O)c1cc(C(N)=O)c(NC(=O)c2cc[nH]n2)s1` [Compound 209, N-(3-carbamoyl-5-(N-cyclopropyl-N-methylsulfamoyl)thiophen-2-yl)-1H-pyrazole-3-carboxamide], the EC50 stood at 0.0345 µM in assay [1], 0.006 µM in assay [2], 0.314 µM in assay [3] and 0.0739 µM in assay [4].
With `NC(=O)c1cc(S(=O)(=O)N2CCC(F)(F)CC2)sc1NC(=O)C1(O)CCC1` [Compound 213, 5-(4,4-difluoropiperidin-1-ylsulfonyl)-2-(1-hydroxycyclobutanecarboxamido) thiophene-3-carboxamide], the EC50 in assay [1] was determined as 0.118 µM; in assay [2], 0.0528 µM; in assay [3], 0.541 µM; in assay [4] it was 0.0873 µM.
Taken in the same sequence, the figures for `CC(C)(O)C(=O)Nc1sc(S(=O)(=O)c2ccc(F)cc2)cc1C(N)=O` [Compound 221, 5-(4-fluorophenylsulfonyl)-2-(2-hydroxy-2-methylpropanamido) thiophene-3-carboxamide] were 0.0494 µM, 0.0261 µM, 1.16 µM and 0.11 µM.
Take `Cc1cc(F)ccc1S(=O)(=O)c1cc(C(N)=O)c(NC(=O)C2(O)CC2)s1` [Compound 222, 5-(4-fluoro-2-methylphenylsulfonyl)-2-(1-hydroxycyclopropanecarboxamido) thiophene-3-carboxamide]: the EC50 in assay [1] was found to be 0.0261 µM; in assay [2] it was 0.0332 µM; in assay [3] it was 0.583 µM; in assay [4], 0.0229 µM.
In the case of `NC(=O)c1cc(S(=O)(=O)c2ccc(F)cc2)sc1NC(=O)c1ccccc1O` [Compound 223, 5-(4-fluorophenylsulfonyl)-2-(2-hydroxybenzamido) thiophene-3-carboxamide], the half-maximal effective concentration (EC50) amounted to 0.0318 µM in assay [1], 0.0621 µM in assay [2], 0.327 µM in assay [3] and 0.0379 µM in assay [4].
Taken in the same sequence, the figures for `NC(=O)c1cc(S(=O)(=O)c2ccc(F)cc2)sc1NC(=O)C1(O)CC1` [Compound 224, 5-(4-fluorophenylsulfonyl)-2-(1-hydroxycyclopropanecarboxamido) thiophene-3-carboxamide] were 0.0541 µM, 0.035 µM, 0.511 µM and 0.103 µM.
For the molecule `NC(=O)c1cc(S(=O)(=O)c2ccc(F)cc2)sc1NC(=O)C1(O)CCC1` [Compound 226, 5-(4-fluorophenylsulfonyl)-2-(1-hydroxycyclobutanecarboxamido) thiophene-3-carboxamide], the EC50 in assay [1] amounted to 0.0369 µM; in assay [2], 0.0338 µM; in assay [3] it was 0.54 µM; in assay [4] it was 0.0422 µM.
